Data reported in patent publication US20100249145A1, “Inhibitors of VEGF Receptor and HGF Receptor Signaling” (Methylgene, Inc., priority 2005, published 2010).

How the values were obtained:
[1] = biological target: T1, VEGF receptor KDR (Homo sapiens, UniProt P35968); experiment: In vitro receptor tyrosine kinase assay (DELFIA), VEGF receptor KDR; type: biochemical; conditions: Table 31; ATP 0.6 uM, enzyme 5 nM; read-out: VEGFR IC50
T1 construct: made in house; host or cells: Sf9 cells (Spodoptera frugiperda), recombinant baculovirus
T1 sequence (P35968 806-1356): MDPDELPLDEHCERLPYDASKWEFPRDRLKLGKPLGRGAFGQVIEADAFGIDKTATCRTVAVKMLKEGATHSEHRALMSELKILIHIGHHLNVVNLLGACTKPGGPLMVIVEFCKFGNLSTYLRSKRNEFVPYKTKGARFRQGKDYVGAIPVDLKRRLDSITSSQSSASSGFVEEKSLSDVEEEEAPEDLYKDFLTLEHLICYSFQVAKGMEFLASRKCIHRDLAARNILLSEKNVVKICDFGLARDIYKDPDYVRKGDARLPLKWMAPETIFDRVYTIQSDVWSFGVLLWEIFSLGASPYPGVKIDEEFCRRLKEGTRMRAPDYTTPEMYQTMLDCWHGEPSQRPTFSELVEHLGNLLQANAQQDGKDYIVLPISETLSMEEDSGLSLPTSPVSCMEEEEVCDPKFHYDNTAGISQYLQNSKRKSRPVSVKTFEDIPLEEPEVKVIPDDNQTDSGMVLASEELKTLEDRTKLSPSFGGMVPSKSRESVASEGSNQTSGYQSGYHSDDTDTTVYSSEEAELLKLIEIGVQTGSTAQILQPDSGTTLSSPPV
Description: In Vitro Receptor Tyrosine Kinase Assays (c-Met/HGF receptor and VEGF Receptor KDR)
In the case of VEGF receptor KDR a 1.6-kb cDNA corresponding to the catalytic domain of VEGFR2 or KDR (Genbank accession number AF035121 amino acid 806 to 1356) was cloned into the Pst I site of the pDEST20 Gateway vector (Invitrogen) for the production of a GST-tagged version of that enzyme.
The GST-VEGFR2806-1356 protein was expressed in Sf9 cells (Spodoptera frugiperda) upon infection with recombinant baculovirus construct.
The supernatant was loaded onto a GST-agarose column (Sigma) equilibrated with PBS pH 7.3. Following a four column volume (CV) wash with PBS pH 7.3+1% Triton X-100 and 4 CV wash with buffer B (50 mM Tris pH 8.0, 20% glycerol and 100 mM NaCl), bound proteins were step eluted with 5 CV of buffer B supplemented with 5 mM DTT and 15 mM glutathion. […] Final GST-VEGFR2806-1356 protein preparations concentrations were about 0.7 mg/ml with purity approximating 70%.

[2] = system: A549; experiment: A549 wound healing inhibition (HGF dependent migration); type: cell-based; conditions: Homo sapiens, Table 31, read-out: A549 wound healing inbib IC50
Description: (§1) HGF has well known activity in terms of inducing scattering and migration (wound healing) (Wells et al., Cell Motil Cytoskeleton. 2005 November 62(3):180-94; Miura et al., Urology 2001 December 58(6):1064-9; Nishimura et al., Int J. Urol. 1998 May 5(3):276-81; Wang et al., Mol Cancer Ther. 2003 November; 2(11):1085-92; and Christensen et al., Cancer Res. 2003 Nov. 1; 63(21):7345-55).

[3] = system: DU145; experiment: DU145 scattering inhibition (HGF dependent scattering); type: cell-based; conditions: Homo sapiens, DU-145, Table 31, read-out: DU145 scattering inhib IC50
Description: as §1

[4] = biological target: T2, recombinant human c-Met/HGF receptor (Homo sapiens, UniProt P08581); experiment: In vitro receptor tyrosine kinase assay (DELFIA), c-Met/HGF receptor; type: biochemical; conditions: Table 31; ATP 10 uM, enzyme 25 nM; read-out: CMet ic50
T2 construct: His tag (histidine tag from pBlueBacHis2A); made in house; host or cells: Hi-5 cells (Trichoplusia ni), recombinant baculovirus
T2 sequence (P08581 1078-1337): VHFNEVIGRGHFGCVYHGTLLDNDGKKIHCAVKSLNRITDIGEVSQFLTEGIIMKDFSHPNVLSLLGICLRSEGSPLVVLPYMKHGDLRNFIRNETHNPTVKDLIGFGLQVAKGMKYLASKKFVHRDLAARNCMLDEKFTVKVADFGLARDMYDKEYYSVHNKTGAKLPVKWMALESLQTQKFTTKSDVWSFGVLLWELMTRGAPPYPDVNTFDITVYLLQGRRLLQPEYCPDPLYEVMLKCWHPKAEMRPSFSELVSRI

SMILES | IC50 [1] [nM] | IC50 [2] [nM] | IC50 [3] [nM] | IC50 [4] [nM]
CCn1cnc(-c2cc3nccc(Oc4ccc(NC(=S)NC(=O)Cc5ccccc5O)cc4F)c3s2)c1 | < 50 | 1000 to 5000 | 1000 to 5000 | < 50
CCn1cncc1-c1cc2nccc(Oc3ccc(NC(=S)NC(=O)Cc4ccccc4OC)cc3F)c2s1 | – | 1000 to 5000 | < 1000 | < 50
Cc1ccccc1CC(=O)NC(=S)Nc1ccc(Oc2ccnc3cc(-c4cn(C)cn4)sc23)c(F)c1 | < 50 | < 1000 | – | < 50
C#Cc1cccc(CC(=O)NC(=S)Nc2ccc(Oc3ccnc4cc(-c5cn(C)cn5)sc34)c(F)c2)c1 | < 50 | 1000 to 5000 | 1000 to 5000 | < 50
C#Cc1ccc(CC(=O)NC(=S)Nc2ccc(Oc3ccnc4cc(-c5cn(CCN6CCCC6)cn5)sc34)c(F)c2)cc1 | < 50 | > 10000 | > 10000 | 50 to 250
C#Cc1ccc(CC(=O)NC(=S)Nc2ccc(Oc3ccnc4cc(-c5ccc(CN6CCN(C)CC6)cc5)sc34)c(F)c2)cc1 | < 50 | > 10000 | 1000 to 5000 | 50 to 250
C#Cc1ccc(CC(=O)NC(=S)Nc2ccc(Oc3ccnc4cc(-c5nccn5C)sc34)c(F)c2)cc1F | < 50 | < 1000 | 1000 to 5000 | 50 to 250
C#Cc1ccc(F)c(CC(=O)NC(=S)Nc2ccc(Oc3ccnc4cc(-c5cn(C)cn5)sc34)c(F)c2)c1 | < 50 | 1000 to 5000 | 1000 to 5000 | < 50
C#Cc1ccc(F)c(CC(=O)NC(=S)Nc2ccc(Oc3ccnc4cc(-c5nccn5C)sc34)c(F)c2)c1 | < 50 | 1000 to 5000 | 1000 to 5000 | < 50
C#Cc1cc(F)ccc1CC(=O)NC(=S)Nc1ccc(Oc2ccnc3cc(-c4cn(C)cn4)sc23)c(F)c1 | < 50 | < 1000 | < 1000 | < 50
C#Cc1cc(F)ccc1CC(=O)NC(=S)Nc1ccc(Oc2ccnc3cc(-c4cn(CC)cn4)sc23)c(F)c1 | < 50 | < 1000 | < 1000 | < 50
C#Cc1ccc(CC(=O)NC(=S)Nc2ccc(Oc3ccnc4cc(-c5cn(CC)cn5)sc34)c(F)c2)cc1F | < 50 | > 10000 | 1000 to 5000 | 50 to 250
C#Cc1cc(F)ccc1CC(=O)NC(=S)Nc1ccc(Oc2ccnc3cc(-c4nccn4C)sc23)c(F)c1 | < 50 | < 1000 | < 1000 | < 50
C#Cc1cc2nccc(Oc3ccc(NC(=S)NC(=O)Cc4ccccc4)cc3F)c2s1 | > 500 | > 10000 | 1000 to 5000 | 50 to 250
CNC(=O)N1CCN(Cc2ccc(-c3cc4nccc(Oc5ccc(NC(=S)NC(=O)Cc6ccccc6)cc5F)c4s3)cc2)CC1 | < 50 | < 1000 | < 1000 | < 50
CNC(=O)N1CCN(Cc2ccc(-c3cc4nccc(Oc5ccc(NC(=S)NC(=O)Cc6ccc(F)cc6)cc5F)c4s3)cc2)CC1 | < 50 | < 1000 | < 1000 | < 50
C#Cc1cc(F)ccc1CC(=O)NC(=S)Nc1ccc(Oc2ccnc3cc(-c4ccc(CN5CCN(C)CC5)cc4)sc23)c(F)c1 | < 50 | 1000 to 5000 | < 1000 | < 50
C#Cc1cc(F)ccc1CC(=O)NC(=S)Nc1ccc(Oc2ccnc3cc(-c4cn(CCN5CCCC5)cn4)sc23)c(F)c1 | < 50 | < 1000 | < 1000 | < 50
COCCNCc1ccc(-c2cc3nccc(Oc4ccc(NC(=S)NC(=O)Cc5ccc(F)cc5)cc4F)c3s2)cc1 | < 50 | < 1000 | < 1000 | < 50
